# According to BindingDB's records for doi:10.1021/jm900681h (Amgen, 2009):
# Biological target: Cellular tumor antigen p53 (Homo sapiens, UniProt P04637)
# Assay: Induction of p53-Ser15 phosphorylation in human HCT116 cells after 24 hrs
# Cellular tumor antigen p53, sequence (P04637 whole entry): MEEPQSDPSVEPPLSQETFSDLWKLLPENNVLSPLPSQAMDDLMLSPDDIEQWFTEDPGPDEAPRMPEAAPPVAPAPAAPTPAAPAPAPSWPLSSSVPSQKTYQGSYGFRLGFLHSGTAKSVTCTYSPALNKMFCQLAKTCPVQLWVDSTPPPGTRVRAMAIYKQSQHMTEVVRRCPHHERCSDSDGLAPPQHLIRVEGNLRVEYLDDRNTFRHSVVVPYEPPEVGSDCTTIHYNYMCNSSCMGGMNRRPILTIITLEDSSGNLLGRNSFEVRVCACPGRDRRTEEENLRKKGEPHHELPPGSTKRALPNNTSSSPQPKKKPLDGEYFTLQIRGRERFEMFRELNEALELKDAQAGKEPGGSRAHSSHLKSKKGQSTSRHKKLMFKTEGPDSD
row,IC50 [µM],Structure (SMILES)
1,1,Cc1ccc2c(c1)C1=C(C(c3ccc(Br)cc3)O2)C(c2ccc(Br)cc2)n2ncnc2N1C (configuration not stated)

# Biological target: not listed separately
# Assay: Induction of p53 in human HCT116 cells coexpressing pp53TA-luc assessed as inhibition of cell proliferation after 8 hrs by firefly/renilla luciferase reporter assay
row,IC50 [µM],Structure (SMILES)
1,3,Cc1ccc2c(c1)C1=C(C(c3ccc(Br)cc3)O2)C(c2ccc(Br)cc2)n2ncnc2N1C (configuration not stated)
2,6.5,"CCOc1cccc2c1C1=C(C(c3ccc(Br)cc3)O2)C(c2ccc(Br)cc2)n2ncnc2N1C (racemic) [(+/-)-syn-6,7-Bis(4-bromophenyl)-1-ethoxy-12-methyl-7,12-dihydro-6H-chromeno[4,3-d][1,2,4]triazolo[1,5-a]pyrimidine]"
3,44.3,"CN1C2=C(C(c3ccc(Br)cc3)Oc3ccc(F)cc32)C(c2ccc(Br)cc2)n2ncnc21 (racemic) [(+/-)-syn-6,7-Bis(4-bromophenyl)-2-fluoro-12-methyl-7,12-dihydro-6H-chromeno[4,3-d][1,2,4]triazolo[1,5-a]pyrimidine]"
4,11.4,"Cc1cc2c(cc1F)OC(c1ccc(Br)cc1)C1=C2N(C)c2ncnn2C1c1ccc(Br)cc1 (racemic) [(+/-)-syn-6,7-Bis(4-bromophenyl)-3-fluoro-2,12-dimethyl-7,12-dihydro-6H-chromeno[4,3-d][1,2,4]triazolo[1,5-a]pyrimidine]"
5,9.37,"CN1C2=C(C(c3ccc(Cl)cc3)Oc3ccccc32)C(c2ccc(Cl)cc2)n2ncnc21 (racemic) [(+/-)-syn-6,7-Bis(4-chlorophenyl)-12-methyl-7,12-dihydro-6Hchromeno[4,3-d][1,2,4]triazolo[1,5-a]pyrimidine]"
6,15,"CN1C2=C(C(c3ccc(Cl)cc3)Oc3ccccc32)C(c2ccc(Br)cc2)n2ncnc21 (racemic) [(+/-)-syn-7-(4-Bromophenyl)-6-(4-chlorophenyl)-12-methyl-7,12-dihydro-6H-chromeno[4,3-d][1,2,4]triazolo[1,5-a]pyrimidine]"
